# Experimental data as given in patent US8314255B2, “Use of phthalimide and/or sulphonamide derivatives in the treatment of diseases which require reducing the TNF- α levels and an exogenous source of nitric oxide, phthalimide derivatives, sulphonamide derivatives, and a method for obtaining a sulphonamide derivative” (priority 2007, dated 2012).
# Tests used:
# gamma-globin mRNA = settings: 48 hours, data in the literature; cited from earlier work
# [1] = system: leukocyte infiltration, peritonitis induced by thioglycolate; experiment: Peritonitis assay induced by 3% thioglycolate; type: in vivo; settings: 300 μMol/Kg orally, mouse, 3% thioglycolate i.p., 4 h
# Procedure: In a second assay, the number of total leukocytes (10^6/mL) was evaluated in order to evaluate the ability to inhibit their infiltration in the inflammatory process.
# The mice were treated with the substances being analyzed or carrier and after 1 h of oral administration, they were simultaneously subjected to the peritonitis assay, by administering intraperitoneally 1 ml of a 3% thioglycolate solution. 4 h after the administration of thioglycolate, the peritoneal cavity was washed with 3 ml of a HANKS solution (Balanced salt solution, free of Ca^2+ and Mg^2+). Next, the peritoneal wash was analyzed and the total counting of white blood cells was made in a Newbauer's chamber under an optical microscope with a 40× objective.
# [2] = system: Salmonella typhimurium TA102; experiment: AMES test, mutagenic evaluation in Salmonella typhimurium TA102 strain with/without metabolic activation (S9); type: cell-based
# Procedure: (§1) The procedure was firstly developed by (MARON, D. M. and AMES, B. N. Mut. Res. v. 113, pp. 173-215, 1983)
# (§2) For this assay, Salmonella typhimurium TA100 and TA102 strains from the mutagenicity laboratory of the “Faculdade de Ciências Farmacêuticas—UNESP Araraquara” were used. Such strains have the following characteristics: (AMES, 1983)
# (§3) The positive controls are mutagenic compounds specific for each strain and test condition, with 25 μL/plate of sodium azide (1.25 μg/plate) and 100 μL of mitomycin (0.5 μg/plate) being the controls for TA100 and TA102, respectively, in the absence of metabolic activation. For assays with metabolic activation, the positive control for TA100 is 50 μL 2-antramine (1.25 μg/plate) and for TA102 it is 50 μL 2-aminofluorene (1.25 μg/plate).
# (§4) The preincubation method was used.
# (§5) In laminar flow, Salmonella typhimurium (TA100 and TA 102) strains were inoculated individually with a platinum loop, in the respective nutrient broths and maintained at 37° C., under constant stirring (160 rpm) during 14 hours, in order to achieve a density of 1 to 2×10^9 bacteria/mL.
# (§6) Different concentrations of the compounds were added into 100 μL of 0.2M phosphate buffer pH 7.4 (or 500 μL of the mixture S9 in metabolic activation assays) and incubated for 20-30 minutes at 37° C. Solutions containing the compounds had DMSO as the solvent. Thereafter, 2 mL of top agar supplemented with traces of histidine and biotin was added, homogenized and plated in glycosylated minimum medium. After solidification of the top agar, the plates were incubated for 48 hours at a 37° C. Then, the counting of the number of revertant colonies per plate was performed. All tested concentrations, positive and negative controls were run in triplicate.
# (§7) After 48 hours, the revertant colonies were counted manually, and the protoCOL Colony Counter Version 3.15.630 (1998-2001) SYNBIOSIS LTD system was used for the positive control.
# (§8) The final data obtained from the assay was analyzed using the statistical software Salanal (Salmonella Assay Analysis) version 1.0 from the Research Triangle Institute, RTP, North Carolina, USA. Such software allows the dose-response effect to be evaluated by means of analysis of variance (ANOVA-test F) computations between the measurement of the number of revertants at the different tested concentrations (doses) and the negative control, followed by a linear regression. The software model chosen for analyzing the data was Bernstein's (BERNSTEIN, L. et al. Mutat. Res. v. 97, p. 267-281, 1982). The slope of the straight line from the linear portion of the dose-response curve is also provided by this software and corresponds to the number of revertants induced per measurement unit of the analyzed sample.
# (§9) From the results, the mutagenicity ratio (MR) was computed for each analyzed dose from each compound. MR is given by the following equation:
# (§10) MR=average number of revertants per test plate (spontaneous+induced revertants) […] average number of revertants per plate of the negative control (spontaneous revertants)
# (§11) The spontaneous growing means that the number of revertants which developed on the plate, regardless of being induced or not, wherein values higher or equal to 2 are considered as a positive response (VALENT, G. V. et al. Env. Toxicol. Water Quality. v. 8, p. 371-381, 1993).
# (§12) The mutagenicity test with metabolic activation system was performed with a microsomal fraction S9 (S9 mix) prepared from a liver homogenizate from Sprague Dawley rats, previously treated with Aroclor 1254, acquired in the freeze-dried form.
# (§13) The procedure for this assay is the same, however, instead of the buffer, 500 μL of the S9 mixture should be added.
# (§14) The S9 mixture has a viability of 4 hours from preparation when put on ice. The plates are then incubated for 48 hours at 37° C. After the required time has elapsed, the counting of the revertant colonies was carried out. All tested concentrations, positive and negative controls were run in triplicate.
# [3] = system: Salmonella typhimurium TA100; experiment: AMES test, mutagenic evaluation in Salmonella typhimurium TA100 strain with/without metabolic activation (S9); type: cell-based
# Procedure: as §1, §2, §3, §4, §5, §6, §7, §8, §9, §10, §11, §12, §13, §14
smiles,measurement,setting,value
"NC(=O)NO [HU, Hydroxyurea]",concentration producing comparable activity on gamma-globin expression,gamma-globin mRNA,10 µM
"O=C1c2ccccc2C(=O)N1c1cccc(CO[N+](=O)[O-])c1 [Compound IC, 3-(1,3-dioxo-1,3-dihydro-2H-isoindol-2-yl)benzyl nitrate]","Cell Number avg (×106), total leukocytes",[1],3.2 ×106
same,Inhibition % (leukocyte infiltrate),[1],42.85%
same,mutagenicity ratio (MR),"[2]; TA 102, +S9, 0.224 μmol/plate",0.73
same,number of revertants per plate,"[2]; TA 102, +S9, 0.224 μmol/plate",272 ± 26 revertants/plate
same,mutagenicity ratio (MR),"[2]; TA 102, +S9, 0.488 μmol/plate",1.01
same,number of revertants per plate,"[2]; TA 102, +S9, 0.488 μmol/plate",378 ± 6.1 revertants/plate
same,mutagenicity ratio (MR),"[2]; TA 102, +S9, 0.896 μmol/plate",1.09
same,number of revertants per plate,"[2]; TA 102, +S9, 0.896 μmol/plate",405 ± 11 revertants/plate
same,mutagenicity ratio (MR),"[2]; TA 102, +S9, 1.8 μmol/plate",1.07
same,number of revertants per plate,"[2]; TA 102, +S9, 1.8 μmol/plate",399.3 ± 40 revertants/plate
same,mutagenicity ratio (MR),"[2]; TA 102, +S9, 3.58 μmol/plate",1.15
same,number of revertants per plate,"[2]; TA 102, +S9, 3.58 μmol/plate",431 ± 17.9 revertants/plate
same,mutagenicity ratio (MR),"[2]; TA 102, −S9, 0.224 μmol/plate",1.10
same,number of revertants per plate,"[2]; TA 102, −S9, 0.224 μmol/plate",281 ± 25 revertants/plate
same,mutagenicity ratio (MR),"[2]; TA 102, −S9, 0.488 μmol/plate",1.12
same,number of revertants per plate,"[2]; TA 102, −S9, 0.488 μmol/plate",286 ± 4.2 revertants/plate
same,mutagenicity ratio (MR),"[2]; TA 102, −S9, 0.896 μmol/plate",1.19
same,number of revertants per plate,"[2]; TA 102, −S9, 0.896 μmol/plate",303 ± 9.2 revertants/plate
same,mutagenicity ratio (MR),"[2]; TA 102, −S9, 1.8 μmol/plate",1.55
same,number of revertants per plate,"[2]; TA 102, −S9, 1.8 μmol/plate",395.7 ± 9 revertants/plate
same,mutagenicity ratio (MR),"[2]; TA 102, −S9, 3.58 μmol/plate",1.52
same,number of revertants per plate,"[2]; TA 102, −S9, 3.58 μmol/plate",387 ± 9.7 revertants/plate
same,mutagenicity ratio (MR),"[3]; TA 100, +S9, 0.224 μmol/plate",1.27
same,number of revertants per plate,"[3]; TA 100, +S9, 0.224 μmol/plate",165 ± 13.2 revertants/plate
same,mutagenicity ratio (MR),"[3]; TA 100, +S9, 0.488 μmol/plate",1.18
same,number of revertants per plate,"[3]; TA 100, +S9, 0.488 μmol/plate",153 ± 13.1 revertants/plate
same,mutagenicity ratio (MR),"[3]; TA 100, +S9, 0.896 μmol/plate",1.12
same,number of revertants per plate,"[3]; TA 100, +S9, 0.896 μmol/plate",146 ± 5 revertants/plate
same,mutagenicity ratio (MR),"[3]; TA 100, +S9, 1.8 μmol/plate",1.26
same,number of revertants per plate,"[3]; TA 100, +S9, 1.8 μmol/plate",163 ± 22.5 revertants/plate
same,mutagenicity ratio (MR),"[3]; TA 100, +S9, 3.58 μmol/plate",1.22
same,number of revertants per plate,"[3]; TA 100, +S9, 3.58 μmol/plate",158.3 ± 9.3 revertants/plate
same,mutagenicity ratio (MR),"[3]; TA 100, −S9, 0.224 μmol/plate",1.21
same,number of revertants per plate,"[3]; TA 100, −S9, 0.224 μmol/plate",216.7 ± 10.2 revertants/plate
same,mutagenicity ratio (MR),"[3]; TA 100, −S9, 0.488 μmol/plate",1.25
same,number of revertants per plate,"[3]; TA 100, −S9, 0.488 μmol/plate",224.5 ± 24.6 revertants/plate
same,mutagenicity ratio (MR),"[3]; TA 100, −S9, 0.896 μmol/plate",1.48
same,number of revertants per plate,"[3]; TA 100, −S9, 0.896 μmol/plate",266.3 ± 8.4 revertants/plate
same,mutagenicity ratio (MR),"[3]; TA 100, −S9, 1.8 μmol/plate",1.34
same,number of revertants per plate,"[3]; TA 100, −S9, 1.8 μmol/plate",239.7 ± 11.3 revertants/plate
same,mutagenicity ratio (MR),"[3]; TA 100, −S9, 3.58 μmol/plate",1.8
same,number of revertants per plate,"[3]; TA 100, −S9, 3.58 μmol/plate",323.7 ± 10.2 revertants/plate
same,"mutagenicity (AMES test, overall)","[3]; TA100 and TA102, with and without S9, at the concentrations used",did not show mutagenicity
